The text below walks through data of US9751874B2, “Hydroxy containing FXR (NR1H4) modulating compounds” (Gilead Sciences, Inc., priority 2014, dated 2017).

As usually defined, the EC50 is the midpoint of the concentration-response curve.

Bounds are passed on as bounds.

Experiment [1] addresses T1, human FXR alpha ligand binding domain (Homo sapiens, UniProt Q96RI1).
T1 construct: made in house; host or cells: E. coli BL21(DE3), vector pDEST15
T1 sequence (Q96RI1 187-472 isoform Q96RI1-2): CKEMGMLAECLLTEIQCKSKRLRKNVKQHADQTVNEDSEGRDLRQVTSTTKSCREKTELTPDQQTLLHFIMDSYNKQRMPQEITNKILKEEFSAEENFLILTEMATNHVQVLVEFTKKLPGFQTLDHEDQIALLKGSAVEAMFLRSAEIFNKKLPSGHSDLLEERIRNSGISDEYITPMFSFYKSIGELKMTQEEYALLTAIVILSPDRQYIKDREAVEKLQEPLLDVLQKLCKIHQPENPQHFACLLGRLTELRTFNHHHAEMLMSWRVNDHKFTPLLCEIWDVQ
Nature of the experiment: FRET activity assay (ligand mediated cofactor peptide interaction, LANCE). The class given is biochemical. The settings on record: GST-FXR-LBD / biotinylated SRC-1 peptide (676-700), read-out: F EC50. The gist of the method:
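GST-tagged FXR LBD (aa 187–472, E. coli-expressed) at 20–60 ng/well with 200–600 nM biotinylated SRC-1 peptide (676–700), streptavidin-APC and Eu anti-GST in Tris pH 7.5 buffer, 1% DMSO, equilibrated 1 h dark at room temperature. TR-FRET read as 665/615 nm ratio; agonists raise signal above basal.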
For orientation: Time-resolved FRET reads energy transfer from a long-lived donor to a nearby acceptor.

Experiment [2] deals with T2, FXR ligand binding domain (Homo sapiens, UniProt Q96RI1).
T2 construct: expressed in transfected cells; host or cells: HEK293 cells, transiently transfected with pCMV-BD-FXR-LBD, pFR-Luc and pRL-CMV
T2 sequence (Q96RI1 187-472 isoform Q96RI1-2): T1 sequence (Q96RI1 187-472 isoform Q96RI1-2)
Nature of the experiment: Mammalian One Hybrid (M1H) assay, Gal4 promoter driven transactivation in HEK293 cells. The settings on record: Gal4-FXR-LBD luciferase reporter, 16 h. It counts as cell-based. The gist of the method: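 HEK293 cells were transiently co-transfected with Gal4-DBD fused to the human FXR LBD (aa 187-472, NM_005123), a 5×GAL4-site firefly luciferase reporter and CMV-Renilla control. Compounds were added 2-4 h post-transfection (vehicle ≤0.1%) in charcoal/dextran-stripped FBS medium for 16 h. Firefly and Renilla luciferase were read sequentially, in triplicate.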
(In general: Reporter assays use an easily measured gene product as a stand-in for the process of interest.)

Consider `O=C(O)c1ccc2nc(C3(O)CC4(CC(OCc5c(-c6c(Cl)cccc6Cl)noc5C5CC5)C4)C3)sc2c1` (single isomer, unassigned) [Example 11-4b, 2-(6-((5-Cyclopropyl-3-(2,6-dichlorophenyl)isoxazol-4-yl)methoxy)-2-hydroxyspiro[3.3]heptan-2-yl)benzo[d]thiazole-6-carboxylic acid], for which the results for the EC50 in experiment [1] and in experiment [2] were 120 nM and 380 nM, respectively.

For `O=C(O)c1ccnc2ccc([C@]3(O)CC[C@H](OCc4c(-c5c(Cl)cccc5Cl)noc4C4CC4)CC3)cc12` [Example 31, 6-((1r,4r)-4-((5-cyclopropyl-3-(2,6-dichlorophenyl)isoxazol-4-yl)methoxy)-1-hydroxycyclohexyl)quinoline-4-carboxylic acid], the figures for the EC50 in experiment [1] and in experiment [2] were 4900 nM and greater than 3000 nM, respectively.

For `O=C(O)c1cc(F)c2nc([C@]3(O)CC4CC3CC4OCc3c(-c4c(Cl)cccc4Cl)noc3C3CC3)sc2c1` (single isomer, unassigned) [Example 11-48], the EC50 in experiment [1] turned out to be 46 nM; in experiment [2], 190 nM.

For the compound `Cc1cccc(C)c1OCc1noc(C2CC2)c1CO[C@@H]1C[C@H]2CC[C@@H](C1)[C@]2(O)c1nc2c(F)cc(C(=O)O)cc2s1` [Example 11-50, 2-((1R,3s,5S,8r)-3-((5-Cyclopropyl-3-((2,6-dimethylphenoxy)methyl)isoxazol-4-yl)methoxy)-8-hydroxybicyclo[3.2.1]octan-8-yl)-4-fluorobenzo[d]thiazole-6-carboxylic acid], the results for the EC50 in experiment [1] and in experiment [2] were 82 nM and 6.4 nM, respectively.

`O=C(O)c1cc(F)c2nc([C@]3(O)[C@@H]4CC[C@H]3C[C@H](OCc3c(-c5ccccc5OC(F)F)noc3C3CC3)C4)sc2c1` [Example 11-28, 2-((1R,3s,5S,8r)-3-((5-Cyclopropyl-3-(2-(difluoromethoxy)phenyl)isoxazol-4-yl)methoxy)-8-hydroxybicyclo[3.2.1]octan-8-yl)-4-fluorobenzo[d]thiazole-6-carboxylic acid]: the values for the EC50 in experiment [1] and in experiment [2] were 9.7 nM and 17 nM, respectively.

Regarding `CC(C)(F)c1onc(-c2c(Cl)cccc2Cl)c1CO[C@@H]1C[C@H]2CC[C@@H](C1)[C@]2(O)c1nc2c(F)cc(C(=O)O)cc2s1` [Example 11-52, 2-((1R,3s,5S,8r)-3-((3-(2,6-Dichlorophenyl)-5-(2-fluoropropan-2-yl)isoxazol-4-yl)methoxy)-8-hydroxybicyclo[3.2.1]octan-8-yl)-4-fluorobenzo[d]thiazole-6-carboxylic acid], the EC50 in experiment [1] worked out at 4.9 nM; in experiment [2] it was 1.9 nM.

`O=C(O)Cc1ccc(F)c([C@]2(O)CC[C@@H](OCc3c(-c4c(Cl)cccc4Cl)noc3C3CC3)CC2)c1` [Example 11-9, 2-(3-((1s,4s)-4-((5-Cyclopropyl-3-(2,6-dichlorophenyl)isoxazol-4-yl)methoxy)-1-hydroxycyclohexyl)-4-fluorophenyl)acetic acid]: the figures for the EC50 in experiment [1] and in experiment [2] were 47 nM and 120 nM, respectively.

Regarding `O=C(O)c1ccc2nc(C3(O)CC4(CC(OCc5c(-c6c(Cl)cccc6Cl)noc5C5CC5)C4)C3)sc2c1` (single isomer, unassigned) [Example 11-4a, 2-(6-((5-Cyclopropyl-3-(2,6-dichlorophenyl)isoxazol-4-yl)methoxy)-2-hydroxyspiro[3.3]heptan-2-yl)benzo[d]thiazole-6-carboxylic acid], the EC50 in experiment [1] came to 56 nM; in experiment [2], 300 nM.

On to `Cc1cccc(C)c1-c1noc(C2CC2)c1CO[C@H]1CC[C@](O)(c2nc3ccc(C(=O)O)cc3s2)CC1` [Example 11-12, 2-((1s,4s)-4-((5-Cyclopropyl-3-(2,6-dimethylphenyl)isoxazol-4-yl)methoxy)-1-hydroxycyclohexyl)benzo[d]thiazole-6-carboxylic acid], for which the figures for the EC50 in experiment [1] and in experiment [2] were 360 nM and 430 nM, respectively.

On to `O=C(O)c1nsc2ccc([C@]3(O)CC[C@@H](OCc4c(-c5c(Cl)cccc5Cl)noc4C4CC4)CC3)cc12` [Example 33, 5-((1s,4s)-4-((5-Cyclopropyl-3-(2,6-dichlorophenyl)isoxazol-4-yl)methoxy)-1-hydroxycyclohexyl)benzo[d]isothiazole-3-carboxylic acid], for which the values for the EC50 in experiment [1] and in experiment [2] were 120 nM and 2700 nM, respectively.

Take `CC(C)(O)c1onc(-c2c(Cl)cccc2Cl)c1CO[C@@H]1C[C@H]2CC[C@@H](C1)[C@]2(O)c1nc2c(F)cc(C(=O)O)cc2s1` [Example 11-56, 2-((1R,3s,5S,8r)-3-((3-(2,6-Dichlorophenyl)-5-(2-hydroxypropan-2-yl)isoxazol-4-yl)methoxy)-8-hydroxybicyclo[3.2.1]octan-8-yl)-4-fluorobenzo[d]thiazole-6-carboxylic acid]: the EC50 in experiment [1] was found to be 23 nM; in experiment [2], 290 nM.
